How the values were obtained:
[1] = target: T1, adrenergic receptor alpha2C (Homo sapiens, UniProt P18825); assay: Inhibition constants (Ki) for adrenergic receptor alpha2C in recombinant cells; type: binding; settings: read-out: pKi α2C (converted)
T1 construct: expressed in transfected cells; host or cells: recombinant human cells (so in the source)
T1 sequence (P18825 1-462): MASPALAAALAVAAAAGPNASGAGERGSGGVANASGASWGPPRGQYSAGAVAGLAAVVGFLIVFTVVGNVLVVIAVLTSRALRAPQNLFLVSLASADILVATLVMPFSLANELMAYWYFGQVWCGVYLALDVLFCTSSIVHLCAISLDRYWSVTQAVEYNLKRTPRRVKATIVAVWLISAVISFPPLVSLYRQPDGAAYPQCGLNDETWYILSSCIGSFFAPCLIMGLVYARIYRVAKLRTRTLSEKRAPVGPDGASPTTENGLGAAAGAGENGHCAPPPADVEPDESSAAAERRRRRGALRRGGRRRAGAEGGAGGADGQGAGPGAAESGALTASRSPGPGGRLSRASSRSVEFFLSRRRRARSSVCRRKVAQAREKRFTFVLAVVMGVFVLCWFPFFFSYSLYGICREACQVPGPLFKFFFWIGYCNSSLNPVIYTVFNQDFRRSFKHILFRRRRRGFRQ
Protocol: (§1) Compounds of formula 1 have been evaluated in vitro as ligands for dopaminergic and noradrenergic receptors and modulators of the activity of these receptors according to the invention in recombinant human cells expressing the receptors. The inhibition constants (Ki) were measured for dopaminergic receptors D2 and D3, and for adrenergic receptors alpha2A, alpha2B and alpha2C, according to the described methods (Newman-Tancredi A, Assie M B, Martel J C, Cosi C, Slot L B, Palmier C, Rauly-Lestienne I, Colpaert F, Vacher B, Cussac D. F15063, a potential antipsychotic with D2/D3 antagonist, 5-HT 1A agonist and D4 partial agonist properties. I. In vitro receptor affinity and efficacy profile. Br J Pharmacol., 2007, 151:237-252). The intrinsic activity of the products for the D2 receptor was measured (Bruins Slot L A, De Vries L, Newman-Tancredi A, Cussac D. Differential profile of antipsychotics at serotonin 5-HT1A and dopamine D2S receptors coupled to extracellular signal-regulated kinase. Eur J Pharmacol, 2006, 534; 63-70. The results obtained for some of these compounds are presented in the following table.

[2] = target: T2, D2 receptor (Homo sapiens, UniProt P14416); assay: Intrinsic (agonist) activity at the D2 receptor; type: cell-based
T2 construct: expressed in transfected cells; host or cells: recombinant human cells (so in the source)
Protocol: The prior art mentions, for benzodioxane-piperidine derivatives bearing an amide, a urea or an imidazolidinone, as non-selective alpha2-antagonists (WO 97/28157, WO 98/02435); some of these products also have a weak affinity for the D2 dopaminergic receptor (T. Imbert, J. Med. Chem, 2000, 43: 3653-3664). […] Activity as a D2 and D3 receptor agonist was determined according to the described methods (Bruins Slot L A, De Vries L, Newman-Tancredi A, Cussac D. Differential profile of antipsychotics at serotonin 5-HT1A and dopamine D2S receptors coupled to extracellular signal-regulated kinase. Eur J Pharmacol, 2006, 534; 63-70; Bruins Slot L A, Palmier C, Tardif S, Cussac D. Action of novel antipsychotics at human dopamine D3 receptors coupled to G protein and ERK1/2 activation. Neuropharmacology, 2007, 53: 232-241) for the following compounds, such as described in WO 97/28157 and WO 98/02435; • 1-benzyl-3-(2-(1-((2,3-dihydrobenzo[b][1,4]dioxin-2-yl)methyl)piperidin-4-yl)ethyl)imidazolidin-2-one • 1-(2-(1-((2,3-dihydrobenzo[b][1,4]dioxin-2-yl)methyl)piperidin-4-yl)ethyl)-3-methylimidazolidin-2-one • 1-(2,6-dichlorophenyl)-3-(2-(1-((2,3-dihydrobenzo[b][1,4]dioxin-2-yl)methyl)piperidin-4-yl)ethyl)imidazolidin-2-one • 1-(2-(1-((2,3-dihydrobenzo[b][1,4]dioxin-2-yl)methyl)piperidin-4-yl)ethyl)-3-(pyridin-4-yl)imidazolidin-2-one • 3-(2-(1-((2,3-dihydrobenzo[b][1,4]dioxin-2-yl)methyl)piperidin-4-yl)ethyl)-1-phenylimidazolidine-2,4-dione • (S)—N-(2-(1-((2,3-dihydrobenzo[b][1,4]dioxin-2-yl)methyl)piperidin-4-yl)ethyl)-[1,1′-biphenyl]-4-carboxamide • (S)—N-(2-(1-((2,3-dihydrobenzo[b][1,4]dioxin-2-yl)methyl)piperidin-4-yl)ethyl)-4-(1H-pyrrol-1-yl)benzamide • (S)—N-(2-(1-((2,3-dihydrobenzo[b][1,4]dioxin-2-yl)methyl)piperidin-4-yl)ethyl)-4-(pyridin-4-yl)benzamide • (S)—N-(2-(1-((2,3-dihydrobenzo[b][1,4]dioxin-2-yl)methyl)piperidin-4-yl)ethyl)-4-(pyridin-3-yl)benzamide • (S)—N-(2-(1-((2,3-dihydrobenzo[b][1,4]dioxin-2-yl)methyl)piperidin-4-yl)ethyl)-9-oxo-9H-fluorene-1-carboxamide.
as §1

[3] = target: T3, dopaminergic receptor D2 (Homo sapiens, UniProt P14416); assay: Inhibition constants (Ki) for dopaminergic receptor D2 in recombinant cells; type: binding; settings: read-out: pKi D2 (converted)
T3 construct: expressed in transfected cells; host or cells: recombinant human cells (so in the source)
Protocol: as §1

[4] = target: T4, dopaminergic receptor D3 (Homo sapiens, UniProt P35462); assay: Inhibition constants (Ki) for dopaminergic receptor D3 in recombinant cells; type: binding; settings: read-out: pKi D3 (converted)
T4 construct: expressed in transfected cells; host or cells: recombinant human cells (so in the source)
Protocol: as §1

[5] = tested on: MK-801-induced hyperactivity; assay: MK-801-induced hyperactivity test in mice; type: in vivo; settings: Mus musculus
[6] = tested on: scopolamine-induced amnesia; assay: Passive avoidance memory test (scopolamine-induced amnesia) in rats; type: in vivo; settings: for Latency to enter the dark compartment: scopolamine, measured 48 h after training, carrier 24±12
Protocol: Example 31 was evaluated in rats in a memory test, the passive avoidance test (Chopin P, Briley M. Effects of four non-cholinergic cognitive enhancers in comparison with tacrine and galanthamine on scopolamine-induced amnesia in rats, Psychopharmacology (Berl), 1992; 106:26-30). This test consists of teaching a rat not to enter a dark compartment (its naturally preferred place) where it had previously received an electric shock (0.8 mA). The animal's reticence (the time lapse or “latency” to enter the dark compartment) measured 48 h after its training is considered as an index of its explicit-declarative memory. Latency greatly […] when an amnesic product such as scopolamine is administered shortly after receiving the first shock. A product with promnesic properties opposes the effects of scopolamine.

[7] = target: T5, adrenergic receptor alpha2B (Homo sapiens, UniProt P18089); assay: Inhibition constants (Ki) for adrenergic receptor alpha2B in recombinant cells; type: binding; settings: read-out: pKi α2B (converted)
T5 construct: expressed in transfected cells; host or cells: recombinant human cells (so in the source)
T5 sequence (P18089 1-450): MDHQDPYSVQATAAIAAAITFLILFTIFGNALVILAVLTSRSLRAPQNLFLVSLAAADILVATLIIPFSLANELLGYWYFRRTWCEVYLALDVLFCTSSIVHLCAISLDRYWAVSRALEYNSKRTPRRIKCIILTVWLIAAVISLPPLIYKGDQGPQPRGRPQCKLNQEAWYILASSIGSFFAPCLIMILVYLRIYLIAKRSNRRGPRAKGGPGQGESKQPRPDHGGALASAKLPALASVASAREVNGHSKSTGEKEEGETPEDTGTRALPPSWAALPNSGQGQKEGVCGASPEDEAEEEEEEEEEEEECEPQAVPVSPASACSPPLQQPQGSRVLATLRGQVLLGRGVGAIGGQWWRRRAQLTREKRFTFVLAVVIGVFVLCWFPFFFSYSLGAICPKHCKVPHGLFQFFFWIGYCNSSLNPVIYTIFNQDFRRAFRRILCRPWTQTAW
Protocol: as §1

[8] = target: T6, adrenergic receptor alpha2A (Homo sapiens, UniProt P08913); assay: Inhibition constants (Ki) for adrenergic receptor alpha2A in recombinant cells; type: binding; settings: read-out: pKi α2A (converted)
T6 construct: expressed in transfected cells; host or cells: recombinant human cells (so in the source)
T6 sequence (P08913 1-465): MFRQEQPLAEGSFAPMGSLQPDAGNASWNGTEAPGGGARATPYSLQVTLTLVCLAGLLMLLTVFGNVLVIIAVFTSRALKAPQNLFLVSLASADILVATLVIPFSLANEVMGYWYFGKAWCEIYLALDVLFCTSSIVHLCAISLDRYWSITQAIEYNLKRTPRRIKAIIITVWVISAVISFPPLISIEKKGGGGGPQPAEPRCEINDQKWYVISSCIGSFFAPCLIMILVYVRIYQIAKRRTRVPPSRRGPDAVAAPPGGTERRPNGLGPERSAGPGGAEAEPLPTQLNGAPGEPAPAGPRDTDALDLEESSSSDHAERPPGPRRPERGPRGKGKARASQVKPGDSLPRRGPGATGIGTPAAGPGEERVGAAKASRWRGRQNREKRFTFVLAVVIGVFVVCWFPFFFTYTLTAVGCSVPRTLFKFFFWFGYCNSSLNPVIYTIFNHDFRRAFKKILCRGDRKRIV
Protocol: as §1

T3 sequence (P14416 whole entry): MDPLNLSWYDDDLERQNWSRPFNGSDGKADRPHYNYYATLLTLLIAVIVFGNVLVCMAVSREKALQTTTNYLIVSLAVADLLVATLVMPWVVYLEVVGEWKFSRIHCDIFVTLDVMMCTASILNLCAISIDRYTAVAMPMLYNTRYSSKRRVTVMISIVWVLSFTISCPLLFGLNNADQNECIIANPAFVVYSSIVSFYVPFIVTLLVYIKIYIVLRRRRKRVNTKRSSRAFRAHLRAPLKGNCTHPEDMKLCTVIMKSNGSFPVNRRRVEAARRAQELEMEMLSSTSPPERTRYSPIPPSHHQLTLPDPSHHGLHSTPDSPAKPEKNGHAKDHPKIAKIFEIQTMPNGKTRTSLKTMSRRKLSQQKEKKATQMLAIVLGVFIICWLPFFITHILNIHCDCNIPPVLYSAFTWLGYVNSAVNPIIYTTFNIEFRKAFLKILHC
T4 sequence (P35462 whole entry): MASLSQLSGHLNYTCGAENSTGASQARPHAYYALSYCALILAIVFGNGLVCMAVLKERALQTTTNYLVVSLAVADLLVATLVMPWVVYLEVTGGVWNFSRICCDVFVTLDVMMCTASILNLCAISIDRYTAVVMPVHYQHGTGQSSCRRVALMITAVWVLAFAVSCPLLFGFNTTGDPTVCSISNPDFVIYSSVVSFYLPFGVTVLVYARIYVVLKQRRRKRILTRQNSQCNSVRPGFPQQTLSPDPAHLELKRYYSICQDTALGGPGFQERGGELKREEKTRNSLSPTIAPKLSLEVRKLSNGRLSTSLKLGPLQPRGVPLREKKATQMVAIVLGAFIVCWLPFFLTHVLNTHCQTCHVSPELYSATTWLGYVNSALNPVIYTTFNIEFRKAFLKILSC
T2 sequence (P14416 1-414 isoform P14416-2): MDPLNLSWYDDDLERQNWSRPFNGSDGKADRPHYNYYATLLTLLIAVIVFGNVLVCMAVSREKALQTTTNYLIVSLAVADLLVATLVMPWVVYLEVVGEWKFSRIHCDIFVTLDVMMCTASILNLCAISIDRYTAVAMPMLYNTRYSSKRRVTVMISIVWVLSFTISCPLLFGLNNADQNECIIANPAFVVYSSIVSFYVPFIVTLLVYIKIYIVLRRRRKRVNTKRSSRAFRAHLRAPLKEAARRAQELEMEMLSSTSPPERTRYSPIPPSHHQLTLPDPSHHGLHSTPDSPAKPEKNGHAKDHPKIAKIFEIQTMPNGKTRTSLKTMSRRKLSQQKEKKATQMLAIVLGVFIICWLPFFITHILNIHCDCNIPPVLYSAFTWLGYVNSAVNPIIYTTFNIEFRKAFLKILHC

| Ki [1] [nM] | I.A.: Intrinsic activity on receptor D2 in vitro [2] | Ki [3] [nM] | Ki [4] [nM] | Ki [7] [nM] | Ki [8] [nM] | Compound | ED50 [5] [mg/kg] | Effect on scopolamine-induced amnesia in the passive avoidance test ([6]; doses of 0.16, 0.63, 2.5 and 10 mg/kg) | Latency to enter the dark compartment ([6]; dose 0.63 mg/kg) [s] | Latency to enter the dark compartment ([6]; dose 2.5 mg/kg) [s] |
| --- | --- | --- | --- | --- | --- | --- | --- | --- | --- | --- |
| 1 | 0 percentage of that of dopamine | 1.17 | 0.525 | 2.95 | 5.13 | Cc1ccc2c(c1)O[C@@H](CN1CCC(CCN3C(=O)OC[C@@H]3Cc3ccccc3)CC1)CO2 [Example 31, (S)-4-benzyl-3-(2-(1-(((S)-7-methyl-2,3-dihydrobenzo[b][1,4]dioxin-2-yl)methyl)piperidin-4-yl)ethyl)oxazolidin-2-one] | 2.1 | opposed to the effect of scopolamine |  |  |
|  |  |  |  |  |  | O=C1OCCN1CCC1CCN(C[C@H]2COc3ccccc3O2)CC1 [Example 1, (S)-3-(2-(1-((2,3-dihydrobenzo[b][1,4]dioxin-2-yl)methyl)piperidin-4-yl)ethyl)oxazolidin-2-one] |  |  | 60 ± 21 | 78 ± 22 |
| 8.71 | 13 percentage of that of dopamine | 0.24 | 0.417 | 186 | 200 | O=C1OC[C@@H](COc2ccccc2)N1CCC1CCN(C[C@H]2COc3ccc(Br)cc3O2)CC1 [Example 69, (R)-3-(2-(1-(((S)-7-bromo-2,3-dihydrobenzo[b][1,4]dioxin-2-yl)methyl)piperidin-4-yl)ethyl)-4-(phenoxymethyl)oxazolidin-2-one] | 0.6 |  |  |  |

From patent publication US20150336943A1, “NOVEL BENZODIOXANE-PIPERIDINE DERIVATIVES AND THEIR THERAPEUTIC APPLICATIONS FOR TREATING NEUROPSYCHIATRIC DISORDERS” (PIERRE FABRE MEDICAMENT, priority 2013, published 2015)
